From patent US10543258B2, “Antibacterial composition containing ADK protein as active ingredient, or composition for preventing or treating sepsis” (priority 2014, dated 2020)

Columns and labels:
S. aureus = test: Growth of bacteria in LB broth, CFU over time; type: cell-based, Staphylococcus aureus; settings: 37° C., Adk 20, 50, 100 μg/ml, ampicillin 100 μg/ml, FIG. 4
Experimental: (§1) To verify the antibacterial activity of the recombinant ADK protein obtained in Example 1, the effect of the ADK protein on the growth of gram-negative bacteria such as E. coli and P. aeruginosa and a gram-positive bacterium such as S. aureus was analyzed.
(§2) More specifically, 1×10^5 CFU of strains were put into a 10 ml LB broth, and an antibiotic (ampicillin) and the ADK protein were added respectively according to five conditions as follows (Group 1: LB broth media with 100 μg/ml ampicillin, Group 2: LB broth media with 20 μg/ml Adk, Group 3: LB broth media with 50 μg/ml Adk, Group 4: LB broth media with 100 μg/ml Adk, Group 5: Non-antibacterial agent LB broth media). The strains were cultured in a 37° C. shaking incubator, 100 μl aliquots of each group was taken at 3-hour intervals and diluted with an LB broth in predetermined ratios, followed by plating the resulting cells on an LB agar (Biobasic, Amherst, N.Y.) plate. The cells were cultured again in a 37° C. incubator overnight, and then CFU values over time were calculated by counting the number of colonies on the LB agar plate.

E. coli = test: Growth of bacteria in LB broth, CFU over time; type: cell-based, Escherichia coli; settings: 37° C., Adk 20, 50, 100 μg/ml, ampicillin 100 μg/ml, FIG. 2
Experimental: as §1, §2

P. aeruginosa = test: Growth of bacteria in LB broth, CFU over time; type: cell-based, Pseudomonas aeruginosa; settings: 37° C., Adk 20, 50, 100 μg/ml, ampicillin 100 μg/ml, FIG. 3
E. coli K1 [1] = test: Sepsis animal model, survival rate; type: in vivo, BALB/c mice; settings: gentamicin 100 μg/kg intraperitoneally; FIG. 12
E. coli K1 [2] = test: Sepsis animal model, serum analysis; type: in vivo, BALB/c mice; settings: 12 hours after sepsis induction; LAL assay kit; FIG. 15
Experimental: Twelve hours after sepsis induction, levels of inflammatory cytokines (TNF-α, IL-6, and IL-1β), AST, ALT, BUN, and endotoxins in sera isolated from mice were analyzed. Here, a cytokine concentration was measured using an ELISA kit (eBiosciences, San Diego, Calif.), and endotoxins were analyzed using an endotoxin detection kit (LAL assay kit, Thermo Fisher Scientific, Bremen, Germany).

| Compound | growth of S. aureus (CFU over time) (S. aureus) | growth of E. coli (CFU over time) (E. coli) | growth of P. aeruginosa (CFU over time) (P. aeruginosa) | time after sepsis induction at which all mice were dead (E. coli K1 [1]) | amount of endotoxins in mouse sera (E. coli K1 [2]) |
| --- | --- | --- | --- | --- | --- |
| CC1(C)S[C@@H]2[C@H](NC(=O)[C@H](N)c3ccccc3)C(=O)N2[C@H]1C(=O)O [ampicillin] | inhibited | inhibited | inhibited | – | – |
| gentamicin | – | – | – | 30 h | a significant difference from the negative control (CON) was not observed |
